pIC50: −log10 of the molar value.
Assays:
IDO1 [1] = target: T1, IDO1 (Homo sapiens, UniProt P14902); assay: IDO1 Human Whole Blood Assay; type: cell-based; conditions: LPS and IFNγ 100 ng/mL, 18 h, kynurenine by LC/MS/MS
Method: IDO1 Human Whole Blood Assay
Compounds to be tested were serially diluted in ten 3-fold steps in DMSO starting from 10 mM. 3 μL of compound dilutions or DMSO alone were then dispensed from the dilution plate into a polypropylene 96-well assay plate containing 97 μL of RPMI medium using an Echo 555 acoustic liquid handler (Labcyte). LPS and IFNγ was prepared in RPMI medium to a 10× of final conc. (1000 ng/mL), final concentration is 100 ng/mL.
Human whole blood was drawn in sodium heparin coated tubes from healthy internal donors. 240 μL of blood was transferred to each of the wells of a v-bottom 96 well plate. 30 μL of compound was transferred from intermediate dilution plate, and incubated for 15 min. 30 μL from stimulants was then transferred to blood and mixed thoroughly. Plate was covered with breathable membrane and incubated at 37° C. for overnight (18 h).
On day 2, isotope labeled standard solutions of kunurenine and tryptophan was made in water at 10× concentration and 30 μL was added to the blood at […] concentration. The assay plates were centrifuged at 300×G for 10 min with no brake to separate plasma from red blood cells. 60 μL of plasma samples was removed without disturbing red blood cells. Plasma was diluted with RPMI in 1:1 ratio and proteins were precipitated out with two volumes of Acetonitrile. The plates were centrifuged at 4000×G for 60 min. 20 μL of supernatant was carefully transferred to a 384 well plate containing 40 μL of 0.1% formic acid in water and analyzed by LC/MS/MS.
LC/MS/MS analyses were performed using Thermo Fisher's LX4-TSQ Quantum Ultra system. This system consists of four Agilent binary high-performance liquid chromatography (HPLC) pumps and a TSQ Quantum Ultra triple quadrupole MS/MS instrument. For each sample, 5 μL were injected onto an Atlantis T3 column (2.1 mm×150 mm, 3 μm particle size) from Waters. The mobile phase gradient pumped at 0.8 mL/min was used to elute the analytes from the column at 25° C. The elution started at 0% B increasing linearly to 25% B at 6.5 min, holding at 25% for 1 min, re-equilibrating to 10 min. Mobile phase A consisted of 0.1% formic acid in water. Mobile phase B consisted of 0.1% of formic acid in acetonitrile. Data was acquired in positive mode using a HESI interface. The operational parameters for the TSQ Quantum Ultra instrument were a spray voltage of 4000 V, capillary temperature of 380° C., vaporizer temperature 400° C., shealth gas 60 arbitrary units, Aux gas 20 arbitrary units, tube lens 85 and collision gas 1.2 mTorr. SRM chromatograms of kynurenine (QI: 209.2>Q3:94.0) and internal standard (QI: 215.3>Q3:98.2) were collected for 90 sec. The peak area was integrated by Xcalibur Quan software. The ratios between the kynurenine generated in the reaction and 2D6-Kynurenine spiked-in internal standard were used to generate percentage inhibition and IC50 values. Compounds were titrated and IC50's were calculated by 4 parameter sigmoidal curve fitting formula.

IDO1 [2] = target: T1, IDO1; assay: IDO1 Cellular Assay in HeLa Cells Stimulated with IFNγ; type: cell-based; conditions: IFNγ 100 ng/mL, 300 uM L-tryptophan, about 48 hours incubation, fluorescence readout, read-out: IDO1 HeLa Cell Assay, IC50
Method: IDO1 Cellular Assay in HeLa Cells Stimulated with IFNγ
HeLa cells were cultured in complete HeLa culture medium (90% EMEM, 10% heat-inactivated fetal bovine serum) and expanded to about 1×10^9 cells. The cells were then collected and frozen down at 1×10^7 cells/vial in 1 mL frozen medium (90% complete HeLa culture medium, 10% DMSO).
Compounds to be tested were serially diluted in ten 3-fold steps in DMSO starting from 10 mM DMSO stocks in Echo low volume plate(s).
Frozen HeLa cells were thawed and transferred into HeLa assay medium (99% complete HeLa culture medium, 1% Pen/Strep) with 20 mL medium/vial of cells. The cells were spun down at 250 g in a table top centrifuge for 5 min and suspended in same volume of HeLa assay medium. The cells were then counted and adjusted to a density of 2×10^5 cells/mL in HeLa assay medium. Sterile L-tryptophan were added to the cells with final concentration of 300 uM L-tryptophan. A small aliquot (2 mL/plate) of HeLa cells were set aside and were not treated with IFNγ, to serve as the Max-E control.
HeLa cells with and without IFNγ were dispensed to the respective wells of 384-well assay plates containing the compounds. The plates were incubated for about 48 hours at a 37° C., 5% CO2 incubator. Afterwards, 12 μL of 0.5 M methyl isonipecotate in dimethyl sulfoxide were added into each well and the plates were sealed and incubated at 37° C. without CO2 overnight. The plates were centrifuged for 1 min at 200×g. The resulting fluorescence was measured in a Spectramax plate reader (Molecular Devices) with a 400 nm excitation filter and a 510 nm emission filter.
Potencies were calculated by […] least squares fit to the four parameter logistic IC50 equation.

T1 sequence (P14902 whole entry): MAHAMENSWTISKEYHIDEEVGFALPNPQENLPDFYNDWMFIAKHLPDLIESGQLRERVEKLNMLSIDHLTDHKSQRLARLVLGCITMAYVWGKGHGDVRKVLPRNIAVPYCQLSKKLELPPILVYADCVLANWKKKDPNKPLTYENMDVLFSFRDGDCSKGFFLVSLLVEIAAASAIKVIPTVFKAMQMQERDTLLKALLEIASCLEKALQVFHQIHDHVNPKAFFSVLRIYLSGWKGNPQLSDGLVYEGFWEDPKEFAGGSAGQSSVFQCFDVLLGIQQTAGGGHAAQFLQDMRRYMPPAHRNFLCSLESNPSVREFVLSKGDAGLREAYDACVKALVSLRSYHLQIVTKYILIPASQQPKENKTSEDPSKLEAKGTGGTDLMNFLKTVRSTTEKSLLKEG

| Compound | pIC50 (IDO1 [1]) | pIC50 (IDO1 [2]) |
| --- | --- | --- |
| N#Cc1cccc(C(=O)Nc2ccc(C3(c4nc5cccc(C(=O)N6CCCC6)c5[nH]4)CCC3)cn2)c1 [Ex. 38, 3-cyano-N-(5-{1-[7-(pyrrolidine-1-carbonyl)-1H-benzimidazol-2-yl]cyclobutyl}pyridin-2-yl)benzamide] | 6.66 | 8.66 |
| O=C(Nc1ccc(C2(c3nc4ccc(OC(F)F)cc4[nH]3)CCC2)cn1)c1cccc(Cl)c1 [Ex. 23, 3-chloro-N-(5-{1-[6-(difluoromethoxy)-1H-benzimidazol-2-yl]cyclobutyl}pyridin-2-yl)benzamide] | 5.97 | 8.12 |
| N#Cc1cccc(C(=O)Nc2ccc(C3(c4nc5cc(C#N)ccc5[nH]4)CCC3)cn2)c1 [Ex. 5, 3-Cyano-N-(5-(1-(5-cyano-1H-benzo[d]imidazol-2-yl)cyclobutyl)pyridin-2-yl)benzamide] | 6.06 | 7.90 |
| N#Cc1cccc(C(=O)Nc2ccc(C3(c4nc5ncc(C(F)(F)F)cc5[nH]4)CCC3)nc2)c1 [Ex. 45, 3-Cyano-N-(6-(1-(6-(trifluoromethyl)-1H-imidazo[4,5-b]pyridin-2-yl)cyclobutyl)pyridin-3-yl)benzamide] | 5.24 | 8.30 |
| O=C(Nc1ccc(C2(c3nc4ccc(Cl)cc4[nH]3)CCC2)cn1)c1cccc(Cl)c1 [Ex. 21, 3-chloro-N-{5-[1-(6-chloro-1H-benzimidazol-2-yl)cyclobutyl]pyridin-2-yl}benzamide] | 7.09 | 8.72 |
| O=C(Nc1ccc(C2(c3nc4ccccc4[nH]3)CCC2)cn1)c1cccc(Cl)c1 [Ex. 3, N-(5-(1-(1H-benzo[d]imidazol-2-yl)cyclobutyl)pyridin-2-yl)-3-chlorobenzamide] | 6.37 | 8.16 |
| O=C(Nc1ccc(C2(c3nc4ccc(C(F)(F)F)cc4[nH]3)CCC2)cn1)c1cccc(Cl)c1 [Ex. 19, 3-chloro-N-(5-{1-[6-(trifluoromethyl)-1H-benzimidazol-2-yl]cyclobutyl}pyridin-2-yl)benzamide] | 6.55 | 8.62 |

The remaining lines, values ahead:

| pIC50 (IDO1 [1]) | pIC50 (IDO1 [2]) | Compound |
| --- | --- | --- |
| 5.80 | 7.68 | O=C(O)Cc1cccc2nc(C3(c4ccc(NC(=O)c5cccc(Cl)c5)nc4)CCC3)[nH]c12 [Ex. 33, 2-(2-(1-(6-(3-Chlorobenzamido)pyridin-3-yl)cyclobutyl)-1H-benzo[d]imidazol-7-yl)acetic acid] |
| 6.31 | 8.33 | Cc1cc(C)c2[nH]c(C3(c4ccc(NC(=O)c5cccc(Cl)c5)nc4)CCC3)nc2c1 [Ex. 8, 3-chloro-N-{5-[1-(5,7-dimethyl-1H-benzimidazol-2-yl)cyclobutyl]pyridin-2-yl}benzamide] |
| 6.30 | 8.28 | Cc1ccc2nc(C3(c4ccc(NC(=O)c5cccc(Cl)c5)nc4)CCC3)[nH]c2c1C [Ex. 10, 3-chloro-N-{5-[1-(6,7-dimethyl-1H-benzimidazol-2-yl)cyclobutyl]pyridin-2-yl}benzamide] |
| 6.30 | 8.29 | Cc1cc(Cl)cc2nc(C3(c4ccc(NC(=O)c5cccc(Cl)c5)nc4)CCC3)[nH]c12 [Ex. 9, 3-chloro-N-{5-[1-(5-chloro-7-methyl-1H-benzimidazol-2-yl)cyclobutyl]pyridin-2-yl}benzamide] |
| 5.77 | 8.21 | N#Cc1cccc(C(=O)Nc2ccc(C3(c4nc5ccccc5[nH]4)CCC3)nc2)c1 [Ex. 46, N-(6-(1-(1H-benzo[d]imidazol-2-yl)cyclobutyl)pyridin-3-yl)-3-cyanobenzamide] |
| 7.23 | 8.27 | N#Cc1cccc(C(=O)Nc2ccc(C3(c4nc5cccc(C(=O)N6CCC(O)CC6)c5[nH]4)CCC3)cn2)c1 [Ex. 37, 3-Cyano-N-(5-(1-(7-(4-hydroxypiperidine-1-carbonyl)-1H-benzo[d]imidazol-2-yl)cyclobutyl)pyridin-2-yl)benzamide] |
| 5.64 | 7.63 | N#Cc1cccc(C(=O)Nc2ccc(C3(c4nc5cc(C(F)(F)F)cnc5[nH]4)CCC3)cn2)c1 [Ex. 28, 3-cyano-N-(5-{1-[6-(trifluoromethyl)-3H-imidazo[4,5-b]pyridin-2-yl]cyclobutyl}pyridin-2-yl)benzamide] |
